Source: patent publication US20240300980A1, “HETEROCYCLIC COMPOUNDS AS KRAS INHIBITOR, AND PREPARATION THEREFOR AND USE THEREOF IN TREATMENT” (SHANGHAI KECHOW PHARMA, INC., priority 2021, published 2024)
Read-outs that look alike come from different tables or passages of the source.

Tested on: AGS cells (KRAS^G12D)
Assay: Detection of cell proliferation in vitro by MTT/MTS method (cell activity experiment)
Assay type: cell-based
Settings: AGS cells, MTT/MTS, 3 days of drug treatment, read-out: AGS IC50
Summary of the method: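 After 3-day compound exposure (final DMSO 0.5%), viability of AGS (KRAS G12D) cells, plated 1000/well one day before dosing, was measured at 490 nm following 4 h MTT or MTS incubation. IC50 was fitted from dose–effect curves relative to DMSO-treated wells.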

Compound | IC50 (Homo sapiens, AGS, 72 h) [nM] | IC50 [nM]
N#Cc1c(OC[C@@]23CCCN2C[C@H](F)C3)nc2c(F)c(-c3cc(O)cc4cccc(F)c34)ccc2c1N1C[C@H]2CC[C@@H](C1)N2 [Example 180, 4-((1R,5S)-3,8-diazabicyclo[3.2.1]octan-3-yl)-8-fluoro-7-(8-fluoro-3-hydroxynaphthalen-1-yl)-2-(((2R,7aS)-2-fluorotetrahydro-1H-pyrrolizin-7a(5H)-yl)methoxy)quinoline-3-carbonitrile] | 556 | –
Oc1cc2c(c(-c3ccc4c(N5C[C@H]6CC[C@@H](C5)N6)nc(OC[C@@]56CCCN5C[C@H](F)C6)nc4c3F)c1)C1CC1CC2 (stereo partly drawn) [Example 295, 7-(4-((1R,5S)-3,8-diazabicyclo[3.2.1]octan-3-yl)-8-fluoro-2-(((2R,7aS)-2-fluorotetrahydro-1H-pyrrolizin-7a(5H)-yl)methoxy)quinazolin-7-yl)-1a,2,3,7b-tetrahydro-1H-cyclopropa[a]naphthalen-5-ol] | 183 | –
Oc1cc2c(c(C3=C(F)c4nc(OC[C@@]56CCCN5C[C@H](F)C6)nc(N5C[C@H]6CC[C@@H](C5)N6)c4C4=NCCN43)c1)CCCC2 [Example 406, 4-(10-((1R,5S)-3,8-diazabicyclo[3.2.1]octan-3-yl)-6-fluoro-8-(((2R,7aS)-2-fluorotetrahydro-1H-pyrrolizin-7a(5H)-yl)methoxy)-2,3-dihydroimidazo[1′,2′:1,2]pyrido[4,3-d]pyrimidin-5-yl)-5,6,7,8-tetrahydronaphthalen-2-ol] | 120 | –
Oc1cc(-c2ncc3c(N4C[C@H]5CC[C@@H](C4)N5)nc(OCC4(CN5CCCC5)CC4)nc3c2F)c2c(F)c(F)ccc2c1 [Example 5, 4-(4-((1R,5S)-3,8-diazabicyclo[3.2.1]octan-3-yl)-8-fluoro-2-((1-(pyrrolidin-1-ylmethyl)cyclopropyl)methoxy)pyrido[4,3-d]pyrimidin-7-yl)-5,6-difluoronaphthalen-2-ol] | 3.8 | –
C#Cc1c(F)ccc2cc(O)cc(-c3ncc4c(N5CC6(CNC6)C5)nc(OC[C@@]56CCCN5C[C@H](F)C6)nc4c3F)c12 [Example 70, 5-ethynyl-6-fluoro-4-(8-fluoro-2-(((2R, 7aS)-2-fluorotetrahydro-1H-pyrrolizin-7a(5H)-yl)methoxy)-4-(2,6-diazaspiro[3.3]heptan-2-yl)pyrido[4,3-d]pyrimidin-7-yl)naphthalen-2-ol] | > 2500 | –
Oc1cc2c(c(-c3ncc4c(N5C[C@H]6CC[C@@H](C5)N6)nc(OC[C@@]56CCCN5C[C@H](F)C6)nc4c3F)c1)CCCC2 [Example 419, 4-(4-((1R,5S)-3,8-diazabicyclo[3.2.1]octan-3-yl)-8-fluoro-2-(((2R,7aS)-2-fluorotetrahydro-1H-pyrrolizin-7a(5H)-yl)methoxy)pyrido[4,3-d]pyrimidin-7-yl)-5,6,7,8-tetrahydronaphthalen-2-ol] | – | 14
Oc1cc(O)c2c(C#Cc3ccc4c(N5C[C@H]6CC[C@@H](C5)N6)nc(OC[C@@]56CCCN5C[C@H](F)C6)nc4c3F)c(F)ccc2c1 [Example 366, 8-((4-((1R,5S)-3,8-diazabicyclo[3.2.1]octan-3-yl)-8-fluoro-2-(((2R,7aS)-2-fluorotetrahydro-1H-pyrrolizin-7a(5H)-yl)methoxy)quinazolin-7-yl)ethynyl)-7-fluoronaphthalene-1,3-diol] | 2100 | –
Oc1ccc2c(C#Cc3ccc4c(N5C[C@H]6CC[C@@H](C5)N6)nc(OC[C@@]56CCCN5C[C@H](F)C6)nc4c3F)c(F)ccc2c1 [Example 367, 5-((4-((1R,5S)-3,8-diazabicyclo[3.2.1]octan-3-yl)-8-fluoro-2-(((2R,7aS)-2-fluorotetrahydro-1H-pyrrolizin-7a(5H)-yl)methoxy)quinazolin-7-yl)ethynyl)-6-fluoronaphthalen-2-ol] | 194 | –
CSc1c(F)ccc2cc(O)cc(-c3ccc4c(N5C[C@H]6CC[C@@H](C5)N6)nc(OC[C@@]56CCCN5C[C@H](F)C6)nc4c3F)c12 [Example 336, 4-(4-((1R,5S)-3,8-diazabicyclo[3.2.1]octan-3-yl)-8-fluoro-2-(((2R,7aS)-2-fluorotetrahvdro-1H-pyrrolizin-7a(5H)-yl)methoxy)quinazolin-7-yl)-6-fluoro-5-(methylthio)naphthalen-2-ol] | – | 9.9
Oc1cc(-c2c(-c3cn[nH]c3)cc3c(N4C[C@H]5CC[C@@H](C4)N5)nc(OC[C@@]45CCCN4C[C@H](F)C5)nc3c2F)c2ccccc2c1 [Example 377, 4-(4-((1R,5S)-3,8-diazabicyclo[3.2.1]octan-3-yl)-8-fluoro-2-(((2R,7aS)-2-fluorotetrahydro-1H-pyrrolizin-7a(5H)-yl)methoxy)-6-(1H-pyrazol-4-yl)quinazolin-7-yl)naphthalen-2-ol] | 120 | –
C#Cc1c(F)ccc2cc(O)cc(-c3ncc4c(-c5ccn(C(=O)CO)c5)nc(OC[C@@]56CCCN5C[C@H](F)C6)nc4c3F)c12 [Example 86, 1-(3-(7-(8-ethynyl-7-fluoro-3-hydroxynaphthalen-1-yl)-8-fluoro-2-(((2R, 7aS)-2-fluorotetrahydro-1H-pyrrolizin-7a(5H)-yl)methoxy)pyrido[4,3-d]pyrimidin-4-yl)-1H-pyrrol-1-yl)-2-hydroxyethan-1-one] | > 10000 | –
O=C1CCc2cc(O)cc(-c3ncc4c(N5C[C@H]6CC[C@@H](C5)N6)nc(OC[C@@]56CCCN5C[C@H](F)C6)nc4c3F)c21 [Example 250, 7-(4-((1R,5S)-3,8-diazabicyclo[3.2.1]octan-3-yl)-8-fluoro-2-(((2R,7aS)-2-fluorotetrahydro-1H-pyrrolizin-7a(5H)-yl)methoxy)pyrido[4,3-d]pyrimidin-7-yl)-5-hydroxy-2,3-dihydro-1H-inden-1-one] | > 2500 | –
Oc1cc(-c2ncc3c(N4C[C@H]5CC[C@@H](C4)O5)nc(OC[C@@]45CCCN4C[C@H](F)C5)nc3c2F)c2c(F)c(F)ccc2c1 [Example 16, 4-(4-((1R,5S)-8-oxa-3-azabicyclo[3.2.1]octan-3-yl)-8-fluoro-2-(((2R,7aS)-2-fluorotetrahydro-1H-pyrrolizin-7a(5H)-yl)methoxy)pyrido[4,3-d]pyrimidin-7-yl)-5,6-difluoronaphthalen-2-ol] | 315 | –
O=S1(=O)[C@@H]2CC[C@H]1CN(c1nc(OC[C@@]34CCCN3C[C@H](F)C4)nc3c(F)c(-c4cc(O)cc5ccc(F)c(F)c45)ncc13)C2 [Example 29, (1R,5S)-3-(7-(7,8-difluoro-3-hydroxynaphthalen-1-yl)-8-fluoro-2-(((2R,7aS)-2-fluorotetrahydro-1H-pyrrolizin-7a(5H)-yl)methoxy)pyrido[4,3-d]pyrimidin-4-yl)-8-thia-3-azabicyclo [3.2.1]octane 8,8-dioxide] | > 2500 | –
C#Cc1c(F)ccc2cc(O)cc(-c3ncc4c(N5CC6CCCNC6C5)nc(OC[C@@]56CCCN5C[C@H](F)C6)nc4c3F)c12 (stereo partly drawn) [Example 52, 5-ethynyl-6-fluoro-4-(8-fluoro-2-(((2R,7aS)-2-fluorotetrahydro-1H-pyrrolizin-7a(5H)-yl)methoxy)-4-(octahydro-6H-pyrrolo[3,4-b]pyridin-6-yl)pyrido[4,3-d]pyrimidin-7-yl)naphthalen-2-ol] | > 2500 | –
Oc1cc(-c2ccc3c(N4C[C@H]5CC[C@@H](C4)N5)nc(OC[C@@]45CCCN4C[C@H](F)C5)nc3c2)c2c(F)c(F)ccc2c1 [Example 150, 4-(4-((1R,5S)-3,8-diazabicyclo[3.2.1]octan-3-yl)-2-(((2R, 7aS)-2-fluorotetrahydro-1H-pyrrolizin-7a(5H)-yl)methoxy)quinazolin-7-yl)-5,6-difluoronaphthalen-2-ol] | 330 | –
